# Tested on: Rat1 fibroblast cells
# Experiment: Transfection efficiency with pCMV-LacZ DNA, β-galactosidase activity of cell lysate (ONPG assay)
# Type: cell-based, rat
# Details: for transfection efficiency when combined to PEI as compared to PEI alone / transfection efficiency alone or in combination with PEI, compared with PEI alone: PEI N/P=10; for transfection efficiency when combined to PEI as compared to PEI alone: 0.25 to 7.5 μl lipid per ug DNA; for transfection efficiency alone or in combination with PEI, compared with PEI alone: lipid 2 mg/ml
# Description: Transfection complexes were prepared as described by Boussif et al. (Boussif et al., 1995).
# Lipid was diluted in 100 μl of growth media without serum and antibiotics. The solutions were immediately homogenized and left at room temperature for 5-10 min. […] The combined material was vortexed and incubated at room temperature for 20 min before addition to the cells.
# Rat1 fibroblast cells were maintained in modified Eagle medium (MEM) (Life Technologies) and VSMC cells were maintained in Dulbecco's modified Eagle medium (DMEM) (Life Technologies). Both cell lines were cultured in media containing 10% heat inactivated calf serum (Life Technologies), 1% penicillin-streptomycin, and L-glutamine in 10 cm tissue culture flasks at 37° C. in a humidified 5% CO2 atmosphere. Cells were grown to 80% confluency, detached with trypsin-EDTA and replated in 2 new flasks 18-24 h before transfection. Two to three hours before transfections, cells were again detached, and seeded at a density of 5×10^4 cells per well in 24-multiwell tissue culture plates.
# At the time of transfection, cells were supplemented with 200-400 μl of fresh complete media containing 10% calf serum and antibiotics unless otherwise specified. Transfection solution was added to each well and the plates were incubated at 37° C. in a humidified atmosphere containing 5% CO2. After 6 h of transfection, the transfecting solution was removed, cells were washed once with appropriate cell culture medium and then covered with 1 ml of the same medium. Cells were maintained for an additional 36-48 h.
# Following transfections with pCMV-LacZ DNA (36-48 h later), cells were washed twice with ice-cold 0.1 M phosphate buffered saline (PBS) and lysed with 250 μl lysis buffer (10 mM Tris-HCl pH 7.5, 1 mM EDTA, 100 mM NaCl, 5 mM MgCl2 and 1% Nonidet P40™ (Boehringer Mannheim)). Lysates were centrifuged 15 000×g at 4° C. for 5 min. The supernatant was collected and its protein concentration was determined using the BCA protein assay kit (PIERCE) using the microwell protocol according to the manufacturer's specifications. β-galactosidase assay was performed as described by Eustice et al. (Eustice et al., 1991) Briefly, β-galactosidase activity was measured in 240 μl assay mixture containing 80 mM sodium phosphate buffer, pH 7.3, 102 mM 2-mercaptoethanol, 9.0 mM MgCl2 and 8.0 mM ONPG (o-nitrophenyl-β-D-galactopyranoside, SIGMA). Samples, (1-40 μl) of each lysate were assayed in the reaction mixture at 37° C. for 30 min in 96-well plates. Absorbance was measured at 405 nm. E. coli β-galactosidase (Roche) was used to generate a standard curve.
Compound,transfection efficiency when combined to PEI as compared to PEI alone (1 μg DNA),"transfection efficiency alone or in combination with PEI, compared with PEI alone (1 μg DNA)",further results
"CCCCCCCC/C=C\CCCCCCCC(=O)OC[C@H](COP(=O)(O)OCCN)OC(=O)CCCCCCC/C=C\CCCCCCCC [DOPE, 1,2-Dioleoyl-sn-Glycero-3-Phosphoethanolamine]",enhance transfection efficiency,–,"β-galactosidase activity when combined to DNA alone (0.25 to 7.5 μl per ug DNA, without PEI): no β-galactosidase activity; increase of transfection efficiency over PEI alone (combined with PEI (N/P=10), 1 μg DNA): ≤ 26 fold"
L-α-phosphatidylcholine,–,"did not display, alone or in combination with PEI, transfection efficiencies that were better or even equal to that obtained with PEI alone",–
"CCCCCCCC/C=C\CCCCCCCC(=O)OCC(C[N+](C)(C)C)OC(=O)CCCCCCC/C=C\CCCCCCCC (stereo not drawn) [1,2-dioleoyl-3-trimethylammonium-propane]",–,"did not display, alone or in combination with PEI, transfection efficiencies that were better or even equal to that obtained with PEI alone",–
"CC(C)CCCC(C)CCCC(C)CCCC(C)CC(=O)OC[C@H](COP(=O)(O)OCCN)OC(=O)CC(C)CCCC(C)CCCC(C)CCCC(C)C (stereo partly drawn) [DPPE, 1,2-Diphytanoyl-sn-Glycero-3-Phosphoethanolamine]",enhance transfection efficiency,–,–
"CCCCCCCC/C=C\CCCCCCCC(=O)OCC(CN(C)C)OC(=O)CCCCCCC/C=C\CCCCCCCC (stereo not drawn) [1,2-dioleoyl-3-dimethylammonium-propane]",–,"did not display, alone or in combination with PEI, transfection efficiencies that were better or even equal to that obtained with PEI alone",–
"CCCCCCCC/C=C\CCCCCCCC(=O)OC[C@H](COP(=O)([O-])OCC[N+](C)(C)C)OC(=O)CCCCCCC/C=C\CCCCCCCC [DOPC, 1,2-Dioleoly-sn-Glycero-3-Phosphocholine]",enhance transfection efficiency,–,–
"CCCCCCCC/C=C\CCCCCCCC(=O)OC[C@@H](COP(=O)(OCC)OCC[N+](C)(C)C)OC(=O)CCCCCCC/C=C\CCCCCCCC (stereo partly drawn) [1,2-dioleoyl-sn-glycero-3-ethylphosphocholine]",–,"did not display, alone or in combination with PEI, transfection efficiencies that were better or even equal to that obtained with PEI alone",–
